These results are taken from ChEMBL document CHEMBL2176988 (J Med Chem, 2012).

For assay [1], the target named is Neuronal acetylcholine receptor subunit alpha-7 (Homo sapiens, UniProt P36544). Put plainly: Displacement of [3H]epibatidine from human alpha7 nAChR expressed in CHO cells after 2 hrs by liquid scintillation counting. The assay is classed as cell-based. A general note: In a radioligand displacement assay an active substance lowers the binding of a labelled ligand.

Assay [2] addresses T1, Neuronal acetylcholine receptor; alpha3/beta4 (Homo sapiens, UniProt P30926+P32297). Put plainly: Agonist activity at human alpha3beta4 nAChR expressed in CHO cells assessed as calcium flux by calcium4-based FLIPR assay relative to nicotine. It counts as functional, cell-based. A general note: A change in cytosolic calcium serves as a functional read-out for many receptors and channels.

The target in assay [3] is T2, Neuronal acetylcholine receptor; alpha4/beta2 (Homo sapiens, UniProt P17787+P43681). Put plainly: Agonist activity at alpha4beta2 nAChR in human SH-EP1 cells assessed as calcium flux by calcium4-based FLIPR assay. It counts as functional, cell-based.
The target of assay [4] is Neuronal acetylcholine receptor; alpha4/beta2 (Rattus norvegicus, UniProt P09483+P12390). Put plainly: Displacement of [3H]epibatidine from alpha4beta2 nAChR in Sprague-Dawley rat cortex after 2 hrs by liquid scintillation counting.
Assay [5] addresses T2, Neuronal acetylcholine receptor; alpha4/beta2. Put plainly: Agonist activity at alpha4beta2 nAChR in human SH-EP1 cells assessed as calcium flux by calcium4-based FLIPR assay relative to nicotine. It counts as functional, cell-based.
Assay [6] has as its target T1, Neuronal acetylcholine receptor; alpha3/beta4. Put plainly: Agonist activity at human alpha3beta4 nAChR expressed in CHO cells assessed as calcium flux by calcium4-based FLIPR assay. It counts as functional, cell-based.
The target is the same in assay [7]. Put plainly: Displacement of [3H]epibatidine from human alpha3beta4 nAChR expressed in CHO cells after 2 hrs by liquid scintillation counting. The assay is classed as cell-based.
For assay [8], the target named is T2, Neuronal acetylcholine receptor; alpha4/beta2. Put plainly: Displacement of [3H]nicotine from alpha4beta2 nAChR in human SH-EP1 cells after 2 hrs by liquid scintillation assay. It counts as cell-based.

Usually Ki stands for the dissociation constant of the complex between target and ligand, obtained from inhibition or displacement. Broadly, the Emax is the size of the effect at its maximum, as opposed to the concentration needed. A word on the EC50: it is the concentration at which the effect is half-maximal.

T1 sequence (P30926 whole entry): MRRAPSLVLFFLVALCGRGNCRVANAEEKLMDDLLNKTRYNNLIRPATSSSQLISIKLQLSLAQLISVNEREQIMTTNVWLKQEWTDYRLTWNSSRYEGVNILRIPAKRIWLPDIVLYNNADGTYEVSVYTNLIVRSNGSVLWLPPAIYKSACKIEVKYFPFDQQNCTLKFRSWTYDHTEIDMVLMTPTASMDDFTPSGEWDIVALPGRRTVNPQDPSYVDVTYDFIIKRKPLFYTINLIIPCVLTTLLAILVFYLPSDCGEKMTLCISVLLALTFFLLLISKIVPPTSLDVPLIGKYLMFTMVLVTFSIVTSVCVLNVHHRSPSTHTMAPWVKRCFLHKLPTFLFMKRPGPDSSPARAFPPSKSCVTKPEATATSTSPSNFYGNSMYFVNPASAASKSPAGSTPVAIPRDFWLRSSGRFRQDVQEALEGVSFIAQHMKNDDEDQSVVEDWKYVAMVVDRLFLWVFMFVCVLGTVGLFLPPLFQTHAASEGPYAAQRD
T1 sequence (P32297 whole entry): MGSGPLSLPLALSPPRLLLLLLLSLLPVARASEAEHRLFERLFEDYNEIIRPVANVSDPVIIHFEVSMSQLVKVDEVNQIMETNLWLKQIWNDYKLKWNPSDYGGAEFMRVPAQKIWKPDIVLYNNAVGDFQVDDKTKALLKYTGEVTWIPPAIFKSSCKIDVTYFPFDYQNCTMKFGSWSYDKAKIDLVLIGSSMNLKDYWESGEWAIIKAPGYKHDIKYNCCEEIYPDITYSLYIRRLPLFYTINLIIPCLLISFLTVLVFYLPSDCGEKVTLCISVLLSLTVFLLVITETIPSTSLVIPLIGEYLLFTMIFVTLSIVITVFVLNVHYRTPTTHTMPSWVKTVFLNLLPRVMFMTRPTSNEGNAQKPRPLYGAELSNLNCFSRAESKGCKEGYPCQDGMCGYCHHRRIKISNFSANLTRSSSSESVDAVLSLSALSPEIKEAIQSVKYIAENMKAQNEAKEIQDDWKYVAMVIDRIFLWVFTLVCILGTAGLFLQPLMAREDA
Sequence of Neuronal acetylcholine receptor subunit alpha-7 (P36544 whole entry): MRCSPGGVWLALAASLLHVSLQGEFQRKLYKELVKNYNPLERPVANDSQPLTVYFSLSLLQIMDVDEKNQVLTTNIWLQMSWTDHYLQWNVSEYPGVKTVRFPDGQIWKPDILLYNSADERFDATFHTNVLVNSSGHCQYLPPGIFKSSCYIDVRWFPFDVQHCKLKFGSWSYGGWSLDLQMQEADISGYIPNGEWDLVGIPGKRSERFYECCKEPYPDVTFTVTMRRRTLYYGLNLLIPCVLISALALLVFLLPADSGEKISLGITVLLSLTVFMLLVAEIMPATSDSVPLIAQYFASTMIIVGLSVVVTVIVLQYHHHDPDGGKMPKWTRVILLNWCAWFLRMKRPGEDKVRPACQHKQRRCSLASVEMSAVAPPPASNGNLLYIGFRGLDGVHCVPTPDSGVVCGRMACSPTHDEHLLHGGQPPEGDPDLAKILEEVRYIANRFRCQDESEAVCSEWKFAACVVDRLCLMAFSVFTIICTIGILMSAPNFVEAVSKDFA
T2 sequence (P17787 whole entry): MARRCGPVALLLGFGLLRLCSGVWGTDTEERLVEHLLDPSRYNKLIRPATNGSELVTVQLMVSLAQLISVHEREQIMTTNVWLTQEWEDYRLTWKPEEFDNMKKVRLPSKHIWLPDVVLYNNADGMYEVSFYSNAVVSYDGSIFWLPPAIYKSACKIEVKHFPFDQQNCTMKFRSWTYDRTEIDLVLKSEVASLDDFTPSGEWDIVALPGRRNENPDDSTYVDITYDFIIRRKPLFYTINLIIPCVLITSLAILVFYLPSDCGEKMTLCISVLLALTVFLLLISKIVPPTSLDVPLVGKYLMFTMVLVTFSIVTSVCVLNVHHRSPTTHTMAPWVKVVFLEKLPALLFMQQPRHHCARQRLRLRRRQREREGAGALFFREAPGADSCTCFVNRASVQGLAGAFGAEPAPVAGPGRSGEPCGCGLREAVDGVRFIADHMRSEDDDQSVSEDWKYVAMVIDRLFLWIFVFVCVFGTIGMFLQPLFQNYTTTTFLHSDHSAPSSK
T2 sequence (P43681 whole entry): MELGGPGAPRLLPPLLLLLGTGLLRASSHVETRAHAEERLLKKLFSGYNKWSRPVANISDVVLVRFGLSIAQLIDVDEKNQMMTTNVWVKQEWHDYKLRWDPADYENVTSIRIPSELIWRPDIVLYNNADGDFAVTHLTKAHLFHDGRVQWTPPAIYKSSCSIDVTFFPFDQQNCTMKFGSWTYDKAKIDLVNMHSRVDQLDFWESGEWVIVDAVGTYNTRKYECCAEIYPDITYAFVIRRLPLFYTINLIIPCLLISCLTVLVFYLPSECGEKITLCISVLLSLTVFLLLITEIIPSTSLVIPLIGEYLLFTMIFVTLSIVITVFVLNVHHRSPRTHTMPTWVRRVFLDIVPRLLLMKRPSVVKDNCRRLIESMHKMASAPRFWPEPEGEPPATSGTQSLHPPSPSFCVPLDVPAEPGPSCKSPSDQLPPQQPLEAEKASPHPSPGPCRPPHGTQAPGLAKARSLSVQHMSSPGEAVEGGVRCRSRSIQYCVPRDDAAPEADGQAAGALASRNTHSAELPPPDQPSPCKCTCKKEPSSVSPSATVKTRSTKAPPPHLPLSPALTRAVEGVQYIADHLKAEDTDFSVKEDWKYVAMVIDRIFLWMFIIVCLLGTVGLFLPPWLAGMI
Sequence of Neuronal acetylcholine receptor; alpha4/beta2 (Rattus norvegicus, UniProt P09483+P12390) (P09483 whole entry): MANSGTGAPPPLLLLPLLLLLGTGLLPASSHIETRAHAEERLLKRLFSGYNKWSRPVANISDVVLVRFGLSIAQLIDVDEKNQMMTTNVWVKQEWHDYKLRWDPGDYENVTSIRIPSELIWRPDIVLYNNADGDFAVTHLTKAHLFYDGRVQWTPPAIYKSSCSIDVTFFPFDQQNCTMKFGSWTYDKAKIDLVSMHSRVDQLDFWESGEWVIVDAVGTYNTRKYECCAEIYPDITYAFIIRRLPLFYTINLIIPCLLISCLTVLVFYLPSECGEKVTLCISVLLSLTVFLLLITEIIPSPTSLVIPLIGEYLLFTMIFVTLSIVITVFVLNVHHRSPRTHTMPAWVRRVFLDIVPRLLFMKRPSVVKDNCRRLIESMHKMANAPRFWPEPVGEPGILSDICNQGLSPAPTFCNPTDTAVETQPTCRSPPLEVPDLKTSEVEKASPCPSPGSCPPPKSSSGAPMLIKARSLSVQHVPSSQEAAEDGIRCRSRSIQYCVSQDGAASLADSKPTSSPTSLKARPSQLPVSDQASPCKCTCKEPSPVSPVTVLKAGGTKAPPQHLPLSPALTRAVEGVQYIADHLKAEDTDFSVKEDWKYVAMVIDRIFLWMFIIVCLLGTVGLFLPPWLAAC
Sequence of Neuronal acetylcholine receptor; alpha4/beta2 (Rattus norvegicus, UniProt P09483+P12390) (P12390 whole entry): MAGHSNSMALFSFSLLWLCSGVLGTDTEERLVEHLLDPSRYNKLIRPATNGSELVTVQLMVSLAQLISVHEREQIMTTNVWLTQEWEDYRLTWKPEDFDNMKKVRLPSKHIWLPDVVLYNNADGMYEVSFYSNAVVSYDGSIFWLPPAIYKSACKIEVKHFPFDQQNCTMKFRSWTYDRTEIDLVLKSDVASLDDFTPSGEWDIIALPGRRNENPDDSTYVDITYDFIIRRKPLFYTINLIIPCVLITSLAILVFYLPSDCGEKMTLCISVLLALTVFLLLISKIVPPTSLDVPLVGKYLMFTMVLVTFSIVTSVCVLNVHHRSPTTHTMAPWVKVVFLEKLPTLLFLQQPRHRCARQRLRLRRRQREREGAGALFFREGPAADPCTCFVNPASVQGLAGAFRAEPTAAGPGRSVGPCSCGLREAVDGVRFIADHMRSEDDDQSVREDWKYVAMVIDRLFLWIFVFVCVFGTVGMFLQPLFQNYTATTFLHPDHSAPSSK

For the compound `O=C(C1CC1)N1CC2CNCC2C1` (configuration not stated), the Ki is 0.84 µM in assay [1], 0.007 µM in assay [4], 0.67 µM in assay [7] and 0.004 µM in assay [8]. Moreover, the Emax in assay [2] amounted to 130%; in assay [5], 110%. The figures for the EC50 in assay [3] and in assay [6] were 0.47 µM and 4.9 µM, respectively.
With `O=C(c1cccnc1)N1CC2CNCC2C1` (configuration not stated), the Ki worked out at 20 µM in assay [1], 0.16 µM in assay [4], 4.4 µM in assay [7] and 0.49 µM in assay [8]. The figures for the Emax in assay [2] and in assay [5] were 55% and 58%, respectively. In addition, the EC50 in assay [3] came to 30 µM; in assay [6], 29 µM.
Turning to `O=C(c1ccncc1)N1CC2CNCC(C2)C1`, the Ki in assay [1] is above 10 µM; in assay [4], 0.057 µM; in assay [7] it was above 10 µM; in assay [8], 0.037 µM. In addition, the values for the Emax in assay [2] and in assay [5] were 6% and 7%, respectively. Besides, the EC50 was determined as 19 µM in assay [3] and 54 µM in assay [6].
On to `Cc1ncoc1C(=O)N1CC2CNCC2C1` (configuration not stated), for which the Ki was found to be 5.9 µM in assay [1], 0.06 µM in assay [4], 22 µM in assay [7] and 0.008 µM in assay [8]. Further, the Emax in assay [2] is 51%; in assay [5] it was 110%. Further, the EC50 was 6.8 µM in assay [3] and 33 µM in assay [6].
As for `O=C(c1ccc(Cl)o1)N1C[C@H]2CN[C@@H](C2)C1`, the Ki in assay [1] was found to be 14 µM; in assay [4], 0.12 µM; in assay [7] it was 5.2 µM; in assay [8], 0.016 µM. The Emax in assay [2] worked out at 100%; in assay [5], 92%. Also, the figures for the concentration giving a half-maximal response (EC50) in assay [3] and in assay [6] were 3 µM and 14 µM, respectively.
`N#Cc1ccoc1C(=O)N1CC2CNCC2C1` (configuration not stated): the Ki in assay [1] was found to be 8.8 µM; in assay [4] it was 0.068 µM; in assay [7], 3.2 µM; in assay [8] it was 0.013 µM. In addition, the maximal effect (Emax) turned out to be 96% in assay [2] and 76% in assay [5]. Moreover, the EC50 in assay [3] came out at 100 µM; in assay [6], 22 µM.
`O=C(c1ccncc1)N1CC2CNCC2C1` (configuration not stated): the Ki in assay [1] was determined as 15 µM; in assay [4], 0.02 µM; in assay [7] it was 5.4 µM; in assay [8] it was 0.067 µM. Further, the figures for the Emax in assay [2] and in assay [5] were 33% and 56%, respectively. The EC50 in assay [3] is 21 µM; in assay [6], 32 µM.
For the compound `O=C(c1ccco1)N1CC2CNCC2C1` (configuration not stated), the Ki in assay [1] turned out to be 5.9 µM; in assay [4], 0.053 µM; in assay [7], 72 µM. Further, the Emax in assay [2] worked out at 32%; in assay [5], 170%. For the same compound, the results for the EC50 in assay [3] and in assay [6] were 4.5 µM and 42 µM, respectively.
For the compound `O=C(C1CC1)N1CC2CNC(C2)C1` (configuration not stated), the Ki stood at 0.35 µM in assay [1], 0.001 µM in assay [4], 0.42 µM in assay [7] and 0.004 µM in assay [8]. Further, the Emax in assay [2] was 150%; in assay [5], 100%. In addition, the EC50 was 1.7 µM in assay [3] and 4.2 µM in assay [6].
Take `O=C(c1cc(Cl)co1)N1CC2CNCC2C1` (configuration not stated): the Ki in assay [1] was above 10 µM; in assay [4], 0.065 µM; in assay [7], 7.1 µM; in assay [8] it was 0.011 µM. The Emax in assay [2] came to 53%; in assay [5], 39%. Besides, the values for the EC50 in assay [3] and in assay [6] were 11 µM and 56 µM, respectively.
In the case of `O=C(c1ccc(Br)o1)N1C[C@H]2CN[C@@H](C2)C1`, the inhibitory constant (Ki) in assay [1] came out at 14 µM; in assay [4], 0.085 µM; in assay [7], 3 µM; in assay [8] it was 0.045 µM. For the same compound, the Emax was 43% in assay [2] and 50% in assay [5]. Besides, the EC50 turned out to be 4.8 µM in assay [3] and 13 µM in assay [6].
As for `Cc1ccoc1C(=O)N1CC2CNCC2C1` (configuration not stated), the inhibitory constant (Ki) in assay [1] was 3.7 µM; in assay [4] it was 0.022 µM; in assay [7], 2.2 µM; in assay [8], 0.032 µM. Also, the Emax in assay [2] turned out to be 40%; in assay [5], 64%. Further, the EC50 was found to be 14 µM in assay [3] and 23 µM in assay [6].
On to `O=C(c1ccno1)N1CC2CNCC2C1` (configuration not stated), for which the Ki in assay [1] was 19 µM; in assay [4] it was 0.047 µM; in assay [7], 7.1 µM; in assay [8], 0.049 µM. Further, the Emax in assay [2] was 17%; in assay [5], 150%. Also, the figures for the EC50 in assay [3] and in assay [6] were 6.8 µM and 66 µM, respectively.
Consider `O=C(c1ccccc1)N1CC2CNCC(C2)C1`, for which the Ki in assay [1] turned out to be 34 µM; in assay [4], 1.7 µM; in assay [7] it was 100 µM; in assay [8] it was 0.92 µM. In addition, the Emax in assay [2] and in assay [5] was 8% each time. In addition, the results for the EC50 in assay [3] and in assay [6] were 100 µM and 28 µM, respectively.
For the compound `O=C(c1ccc(F)o1)N1C[C@H]2CN[C@@H](C2)C1`, the Ki in assay [1] amounted to 1.6 µM; in assay [4] it was 0.12 µM; in assay [7], 0.6 µM; in assay [8], 0.012 µM. Further, the Emax in assay [2] and in assay [5] was 120% in each case. Moreover, the values for the half-maximal effective concentration (EC50) in assay [3] and in assay [6] were 1.7 µM and 4 µM, respectively.
On to `O=C(c1ccc(F)o1)N1C[C@@H]2CN[C@H](C2)C1`, for which the Ki was 14 µM in assay [1], 0.017 µM in assay [4], 0.9 µM in assay [7] and 0.005 µM in assay [8]. Also, the Emax in assay [2] and in assay [5] was 110% throughout. Further, the EC50 in assay [3] came out at 2.1 µM; in assay [6] it was 6.9 µM.
`O=C(c1ncco1)N1CC2CNCC2C1` (configuration not stated): the Ki amounted to 14 µM in assay [1], 0.47 µM in assay [4], 100 µM in assay [7] and 0.34 µM in assay [8]. For the same compound, the maximal response (Emax) in assay [2] amounted to 5%; in assay [5], 65%. In addition, the EC50 came to 31 µM in assay [3] and 79 µM in assay [6].
Regarding `O=C(c1cc(F)co1)N1CC2CNCC2C1` (configuration not stated), the Ki in assay [1] was above 10 µM; in assay [7], 8.3 µM; in assay [8], 0.032 µM. Besides, the figures for the Emax in assay [2] and in assay [5] were 17% and 130%, respectively. Besides, the concentration giving a half-maximal response (EC50) was 1.4 µM in assay [3] and 36 µM in assay [6].
For the compound `O=C(c1ccc(Br)o1)N1CC2CNCC2C1` (configuration not stated), the Ki was above 10 µM in assay [1], 0.24 µM in assay [4], 7.2 µM in assay [7] and 0.074 µM in assay [8]. Moreover, the Emax in assay [2] is 25%; in assay [5], 40%. For the same compound, the results for the EC50 in assay [3] and in assay [6] were 22 µM and 29 µM, respectively.
For `O=C(c1occc1Br)N1CC2CNCC2C1` (configuration not stated), the Ki stood at 6.3 µM in assay [1], 0.008 µM in assay [4], 3.8 µM in assay [7] and 0.002 µM in assay [8]. For the same compound, the Emax in assay [2] turned out to be 83%; in assay [5], 90%. Moreover, the EC50 in assay [3] was 4.2 µM; in assay [6], 27 µM.
Take `O=C(c1ccccc1)N1CC2CNCC2C1` (configuration not stated): the Ki in assay [1] worked out at 20 µM; in assay [4], 0.0011 µM; in assay [7] it was 15 µM; in assay [8], 0.2 µM. Further, the Emax was found to be 18% in assay [2] and 9% in assay [5]. In addition, the EC50 came to 36 µM in assay [3] and 28 µM in assay [6].
In the case of `N#Cc1coc(C(=O)N2CC3CNCC3C2)c1` (configuration not stated), the Ki in assay [1] turned out to be 8.6 µM; in assay [4], 0.12 µM; in assay [7] it was 8.7 µM; in assay [8], 0.027 µM. Besides, the Emax in assay [2] stood at 21%; in assay [5] it was 22%. Further, the EC50 in assay [3] came out at 11 µM; in assay [6], 31 µM.
For `O=C(c1ccco1)N1CC2CNCC(C2)C1`, the Ki in assay [1] is 8.2 µM; in assay [4] it was 0.029 µM; in assay [7], 8.1 µM; in assay [8] it was 0.02 µM. Also, the results for the Emax in assay [2] and in assay [5] were 57% and 65%, respectively. Also, the EC50 came out at 1.9 µM in assay [3] and 43 µM in assay [6].
Take `O=C(c1occc1F)N1CC2CNCC2C1` (configuration not stated): the Ki was above 10 µM in assay [1], 0.054 µM in assay [4], 6.5 µM in assay [7] and 0.023 µM in assay [8]. Also, the Emax was determined as 35% in assay [2] and 96% in assay [5]. Further, the EC50 in assay [3] worked out at 4.8 µM; in assay [6] it was 44 µM.
As for `N#Cc1ccc(C(=O)N2CC3CNCC3C2)o1` (configuration not stated), the Ki in assay [1] was above 10 µM; in assay [7], 4.8 µM; in assay [8] it was 0.053 µM. In addition, the Emax in assay [2] was determined as 14%; in assay [5], 90%. For the same compound, the EC50 was determined as 24 µM in assay [3] and 61 µM in assay [6].
In the case of `O=C(c1ccco1)N1CC2CNC(C2)C1` (configuration not stated), the Ki turned out to be 7.8 µM in assay [1] and 1.7 µM in assay [7]. Besides, the values for the Emax in assay [2] and in assay [5] were 34% and 65%, respectively. The half-maximal effective concentration (EC50) in assay [3] worked out at 2.6 µM; in assay [6], 6.9 µM.
`O=C(c1ccncc1)N1CC2CNC(C2)C1` (configuration not stated): the figures for the Ki in assay [1], in assay [4] and in assay [7] were 1.3 µM, 0.025 µM and 1.5 µM, respectively. For the same compound, the Emax amounted to 110% in assay [2] and 8% in assay [5]. Moreover, the EC50 in assay [3] is 42 µM; in assay [6], 9.2 µM.
Take `O=C(c1ccoc1)N1CC2CNCC2C1` (configuration not stated): the figures for the Ki in assay [1], in assay [7] and in assay [8] were 100 µM, 4.8 µM and 0.019 µM, respectively. Further, the maximal effect (Emax) in assay [2] was 31%; in assay [5], 110%. Further, the results for the EC50 in assay [3] and in assay [6] were 5.8 µM and 35 µM, respectively.
